In BindingDB's records for doi:10.1038/sj.bjp.0702751 (Cerebrus, 1999) one finds Ki data, which are given here for 16 molecules.

pKi: −log10 of the molar value.

For experiment [1], the target named is 5-hydroxytryptamine receptor 2B (Homo sapiens, UniProt P41595).
Experiment [2] has as its target T1, 5-hydroxytryptamine receptor 2C (Homo sapiens, UniProt P28335).
T1 sequence (P28335 whole entry): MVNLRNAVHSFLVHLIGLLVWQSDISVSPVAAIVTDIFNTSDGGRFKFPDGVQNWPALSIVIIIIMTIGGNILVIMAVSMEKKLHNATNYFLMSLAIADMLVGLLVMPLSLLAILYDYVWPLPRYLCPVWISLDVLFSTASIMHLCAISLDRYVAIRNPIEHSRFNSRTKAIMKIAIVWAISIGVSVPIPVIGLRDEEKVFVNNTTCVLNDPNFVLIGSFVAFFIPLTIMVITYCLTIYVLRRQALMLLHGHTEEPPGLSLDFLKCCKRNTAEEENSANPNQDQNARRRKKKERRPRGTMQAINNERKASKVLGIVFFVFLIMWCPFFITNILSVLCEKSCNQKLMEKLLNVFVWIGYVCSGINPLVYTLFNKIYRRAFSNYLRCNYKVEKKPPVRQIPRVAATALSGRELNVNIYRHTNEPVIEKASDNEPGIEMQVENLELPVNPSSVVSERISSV

Chain of 5-hydroxytryptamine receptor 2B (P41595 whole entry): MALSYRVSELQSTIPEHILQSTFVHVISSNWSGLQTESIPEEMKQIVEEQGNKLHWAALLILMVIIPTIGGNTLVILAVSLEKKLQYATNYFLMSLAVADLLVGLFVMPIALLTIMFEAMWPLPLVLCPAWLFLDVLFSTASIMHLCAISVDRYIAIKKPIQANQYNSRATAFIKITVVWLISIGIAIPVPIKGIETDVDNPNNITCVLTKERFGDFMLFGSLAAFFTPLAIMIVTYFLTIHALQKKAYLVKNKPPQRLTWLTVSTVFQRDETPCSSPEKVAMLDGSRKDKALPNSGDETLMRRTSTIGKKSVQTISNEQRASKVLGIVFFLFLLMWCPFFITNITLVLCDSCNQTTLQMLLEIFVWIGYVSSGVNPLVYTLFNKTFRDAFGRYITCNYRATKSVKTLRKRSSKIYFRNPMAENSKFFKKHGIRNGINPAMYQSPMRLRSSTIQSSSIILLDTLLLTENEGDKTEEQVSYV

One may read the pKi as the Ki on a negative log10 scale, so that one unit is a factor of ten. With `CC(N)Cn1ccc2cc(F)c(Cl)cc21` (configuration not stated) [NSC_3045226], the negative logarithm of the Ki (pKi) is 9.05 in experiment [1] and 7.49 in experiment [2].

On to `COc1cc(CC(C)N)c(OC)cc1Br` (stereo not drawn) [2-(4-Bromo-2,5-dimethoxy-phenyl)-1-methyl-ethylamine((-)-DOB)], for which the negative logarithm of the Ki (pKi) in experiment [1] was 8.54.

On to `Clc1cncc(N2CCNCC2)n1` [L-630,571], for which the negative logarithm of the Ki (pKi) in experiment [1] was 6.53; in experiment [2], 6.67.

As for `c1ccc2nc(N3CCNCC3)ccc2c1` [2-Piperazin-1-yl-quinoline (Quipazine)], the values for the pKi in experiment [1] and in experiment [2] were 6.75 and 6.47, respectively.

Consider `C[C@H](N)Cc1cccc(C(F)(F)F)c1` [Norfenfluramine (+)], for which the pKi was 8.06 in experiment [1] and 6.77 in experiment [2].

Regarding `Cc1[nH]c2ccc(O)cc2c1CCN`, the pKi in experiment [1] is 6.77; in experiment [2] it was 5.92.

In experiment [1], `NCCc1c[nH]c2ccc(C(N)=O)cc12` [[3H]-5-carboxamidotryptamine] showed a pKi of 7.81.

Turning to `NCCc1c[nH]c2ccccc12` [1H-indole-3-ethanamine], the values for the negative-log Ki (pKi) in experiment [1] and in experiment [2] were 7.53 and 7.34, respectively.

`Cn1cc(CCN)c2cc(O)ccc21` [5-HT,omega-N-Me]: the values for the negative logarithm of the Ki (pKi) in experiment [1] and in experiment [2] were 8.70 and 7.94, respectively.

The molecule `CCCN(CCC)C1CCc2cccc(O)c2C1` (configuration not stated) showed a pKi in experiment [1] of 6.05.

Consider `FC(F)(F)c1ccc(N2CCNCC2)nc1Cl` [2-Chloro-3-(trifluoromethyl)-6-(1-piperazinyl)pyridine], for which the pKi in experiment [1] is 6.28; in experiment [2], 7.01.

Molecule `CC(N)Cc1c[nH]c2ccc(OCc3cccs3)cc12` (configuration not stated) [NSC_5311036] had a negative-log Ki (pKi) in experiment [2] of 7.03.

In the case of `COc1ccc2c(c1[C@@H]1CCNC1)CCC2` [ORG-37684], the negative logarithm of the Ki (pKi) in experiment [1] was 7.96; in experiment [2] it was 8.17.

For `COc1cc(CC(C)N)c(OC)cc1I` (configuration not stated) [[125I]2,5-dimethoxy-4-iodoamphetamine], the pKi in experiment [1] is 8.85; in experiment [2] it was 8.10.

Turning to `CN1CCc2cc(Cl)c(O)cc2[C@@H](c2ccccc2)C1` [SCH 23390,R(+)], the pKi in experiment [1] is 7.15; in experiment [2], 7.39.

In turn, `FC(F)(F)c1cccc(N2CCNCC2)c1` [TFMPP] had a pKi in experiment [1] of 6.54.
